Results: US7824912B2, “Methods for ex vivo propagation of adult hepatic stem cells” (Massachusetts Institute of Technology, priority 2005, dated 2010)

Columns and labels:
CYP3A4 = test system: CYP3A4
Description: FIG. 14A, cells were grown in a collagen-Matrigel™ sandwich with serum supplemented medium. FIG. 14B, cells were grown under routine culture conditions, but with serum-free medium. Data are the mean of replicate assays (n=2). Error bars indicate the standard deviation of replicate assays.
We undertook an evaluation of CYP3A4 activity in phHASC strains using a commercially available luciferase-based luminescent assay. The p450-GLO™ CYP3A4 luminescent assay was supplied by Promega Corp. (Madison, Wis.). The assay is based on a caged luciferin substrate that is specifically uncaged by the enzymatic action of CYP3A4. Once uncaged, luciferin is available for luciferase action and light production.
We evaluated the effect of rifampicin under two different conditions with two different concentrations of the solvent carrier DMSO, 0.03% and 5%. Parental phHASCs were evaluated after growth in a collagen-Matrigel™ sandwich, as recommended by the supplier of the p450-GLO™ CYP3A4 luminescent assay (FIG. 14A) or under standard culture conditions with serum-free medium (FIG. 14B).

somatic liver stem cells = assay: Derivation of phHASC strains from liver cells by the modified SACK method; assay type: cell-based, human
Description: Cells: Human liver cells are tested for blood borne agents, the non-parenchymal (NPC) fraction is place on ice for up to 24 hours and then centrifuged at 800×g for 5 minutes at 4° C. The resulting cell pellet is re-suspended in 50 ml-100 ml cold Dulbecco's Modified Eagle medium (DMEM-high glucose) supplemented with 1% dialyzed fetal bovine serum (DFBS). Based on the count of trypan blue-excluding viable cells, 5×10^6 viable cells are plated in 10-cm diameter cell culture dishes. Initiation Culture Medium: […] Maintenance Culture Medium: DMEM-high glucose supplemented with 10% DFBS, 20 ng/ml recombinant human epidermal growth factor, 0.5 ng/ml transforming growth factor β1, and the respective purine compound at the concentration used in the Initiation Culture Medium. Although initial efforts to derive cell strains by limiting dilution cloning were unsuccessful, we modified the approach by initially culturing primary liver cell preparations at confluent cell densities under conditions of reduced serum and supplementation with SACK agents, TGF-β and EGF (See Table 1). SACK-derived rat adult stem cell strains resist hepatocytic differentiation by TGF-β and EGF. Whereas their non-stem cell progeny undergo cell cycle withdrawal and hepatic differentiation in response to serum reduction and exposure to TGF-β and EGF, in the presence of Xs, the stem cells continue to cycle actively. The first four livers were invested in establishing a modified SACK procedure. Unlike the original procedure developed for derivation of rat hepatic adult stem cells (Lee et al., 2003), the new method is not based on limiting dilution cloning. Instead, the liver cells are initially cultured at confluent cell densities in low serum medium (1% dialyzed fetal bovine serum [dFBS]) supplemented with the growth factors TGFβ and EGF. In addition, higher concentrations of SACK agents are used, e.g. 1.5 mM Xs. These conditions suppress the growth of differentiating liver cells (including troublesome fibroblasts and stellate cells), while promoting the expansion of […]. After initial outgrowth of […] strains, serum supplementation is increased to 10% dFBS for routine maintenance. Table 1 summarizes results obtained when the newly adapted SACK procedure was applied to cell specimens from two livers from […] donors. All strains were cryo-preserved at early passages using a freezing procedure that minimizes the time that cells spend super-cooled before ice formation (Karlsson et al., 1996). This precaution provides a high level of viability (70%-80%) upon thawing the cells.

phHASC subclone C2 = assay: Colcemid arrest assay (CAA) of non-cycling cell fraction; assay type: cell-based, human; conditions: subclone C2, +Xs compared to -Xs
Description: FIGS. 12A and 12B show CAA analyses of a Xs-derived sub-clone (Parental strain see FIG. 10). […] The new assay is called the colcemid arrest assay (CAA). We used our engineered cell lines with experimentally controlled asymmetric self-renewal to develop it (Rambhatla et al., 2001; FIG. 9). Cell cultures are treated with the microtubule antagonist colcemid for a complete generation period. Conventional methods for propidium iodine staining and standard flow cytometry are used to quantify the DNA content of cells after colcemid treatment. In the presence of colcemid, cycling cells arrest in mitosis of the cell cycle with 4N DNA content. After one generation period, all previously cycling cells contain this amount of DNA. Therefore, for cell cultures with only symmetrically cycling cells, essentially the entire culture arrests in mitosis with 4N DNA (compare FIGS. 9A and 9C). In contrast, the DNA content of non-cycling cells is unchanged. […] Thus, CAA can identify and quantify the cycling stem cell fraction and the arrested differentiated progeny fraction of an asymmetrically self-renewing adult stem cell population (compare FIGS. 9B and 9D). […] In pilot studies with engineered cell lines, the CAA-determined rates were in good agreement with expectations based on previous lineage-specific cell kinetics assays. […]

effect on basal level of CYP3A4 activity (CYP3A4)	increase in CYP3A4 activity (CYP3A4; human, 48 h, 5 %) [fold]	SMILES	Number of Strains (somatic liver stem cells; liver, 2 trials per SACK agent)	Number of Strains (somatic liver stem cells; liver, 3 trials per SACK agent)	non-cycling fraction (phHASC subclone C2)	reliability and effectiveness for developing strains (somatic liver stem cells; compared among Hx, Xn and Xs)	Sub-clones (somatic liver stem cells; liver)
did not affect	6.5	C[S+](C)[O-] [DMSO, dimethylsulfoxide]	–	–	–	–	–
–	–	O=c1[nH]cnc2nc[nH]c12 [Hx, hypoxanthine]	2	3	–	–	–
–	–	O=c1[nH]c(=O)c2[nH]cnc2[nH]1 [Xn, xanthine]	1	3	–	–	–
–	–	O=c1[nH]c(=O)c2ncn([C@@H]3O[C@H](CO)[C@@H](O)[C@H]3O)c2[nH]1 [Xs, xanthosine]	2	1	reduced	most reliable and effective	9
